Results reported in patent publication US20240122179A1, “AUXINIC HERBICIDES AND METHODS OF USE THEREOF” (CORTEVA AGRISCIENCE LLC, priority 2021, published 2024).
Read-outs that look alike come from different tables or passages of the source.

Experiments:
[1] = tested on: Conyza canadensis (L.) (ERICA); assay: Postemergence herbicide evaluation, percent reduction in plant size vs untreated control, 21 days after treatment; type: in vivo, Conyza canadensis (L.) (Horseweed); settings: Erigeron canadensis, post-emergence, 504 h, ERICA, postemergence, read-out: Control/Injury; for pest or weed control at 140 g/ha: rate 140 g ae/ha; for pest or weed control at 280 g/ha: rate 280 g ae/ha
Procedure, shortened: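 Track-sprayer applications (187 L/ha, 276 kPa) of 140 or 280 g ae/ha, technical material dissolved in acetone/DMSO then diluted with crop oil and surfactant-containing solvent, to greenhouse Conyza canadensis at 2-8 leaves. After 21 days, size reduction relative to untreated plants was recorded; 3-4 randomized replicates.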

[2] = Volatility of compounds measured by thermogravimetric analysis (TGA), rate of weight loss; type: physicochemical; settings: estimates of volatility
Text: Briefly, the rate of weight loss measured in units of […]g/min can be used to determine vapor pressure as shown by the simplified equation: wherein, k is the intrinsic volatility and A is the surface area, Referring now to FIG. 2. A graph of weight loss as function of time for solid samples produces a linear curve; the slope of the curve is the rate of weight loss. When this method is used to measure the volatility of aqueous salt concentrates or liquid concentrates, the water or acetone present in the sample volatilizes before the sample of interest. The first linear loss region of the curve is the loss of water or acetone and the second linear region is characteristic of the sample of interest. In order to illustrate the difference in volatility between some of the compounds disclosed herein and the widely used herbicide dicamba, data from both the compounds and dicamba are presented Table 3 and in FIG. 1.

[3] = tested on: Kochia scoparia (KCHSC); assay: Postemergence herbicide evaluation, percent reduction in plant size vs untreated control, 21 days after treatment; type: in vivo; settings: Bassia scoparia, post-emergence, 504 h, KCHSC, postemergence, 21 days after treatment, read-out: Control/Injury; for pest or weed control at 140 g/ha: rate 140 g ae/ha; for pest or weed control at 280 g/ha: rate 280 g ae/ha
Procedure, shortened: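 Values are percent reduction in plant size against an untreated control, measured 21 days after a single postemergence spray at 140 or 280 g ae/ha (187 L/ha, 276 kPa). Treatments used 3-4 randomized complete-block replicates on 2 to 8 leaf-stage plants kept in a 25-28 °C greenhouse, with compounds in acetone/DMSO-based solvent containing crop oil and surfactant.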

[4] = tested on: Amaranthus palmeri (AMAPA); assay: as above; type: in vivo, Amaranthus palmeri (Palmer amaranth); settings: post-emergence, 504 h, postemergence, read-out: Control/Injury; for pest or weed control at 140 g/ha: rate 140 g ae/ha; for pest or weed control at 280 g/ha: rate 280 g ae/ha
Procedure, shortened: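 Percent reduction in plant size relative to untreated plants, measured 21 days after track-sprayer application (187 L/ha) of 140 or 280 g ae/ha to Amaranthus palmeri at the 2 to 8 leaf stage. Randomized complete block, 3 or 4 replicates, greenhouse at 25 to 28° C; spray solution acetone/DMSO with isopropanol, water and crop oil concentrate.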

[5] = tested on: Ambrosia artemisiifolia (AMBEL); assay: as above; type: in vivo, Ambrosia artemisiifolia (common ragweed); settings: post-emergence, 504 h, AMBEL, postemergence, read-out: Control/Injury; for pest or weed control at 140 g/ha: rate 140 g ae/ha; for pest or weed control at 280 g/ha: rate 280 g ae/ha
Procedure, shortened: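 Test compounds at 140 or 280 g ae/ha were applied by track sprayer (187 L/ha, spray solution containing acetone/DMSO, isopropanol, crop oil, surfactant) to 2–8 leaf plants, 3–4 replicates. Plants were kept in a greenhouse at 25–28 °C. Size reduction was scored against untreated controls at 21 days.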

[6] = tested on: Amaranthus rudis (AMATA); assay: as above; type: in vivo, Amaranthus rudis (tall water hemp); settings: Amaranthus tuberculatus, post-emergence, 504 h, AMATA, postemergence, read-out: Control/Injury; for pest or weed control at 140 g/ha: rate 140 g ae/ha; for pest or weed control at 280 g/ha: rate 280 g ae/ha
Procedure, shortened: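 Growth-reduction values are percent decrease in plant size relative to untreated plants, scored 21 days post-application. Amaranthus rudis (2-8 leaves) received postemergence sprays at 140 or 280 g ae/ha, 187 L/ha, in a mixed acetone/DMSO/water/isopropanol carrier with crop oil concentrate. Greenhouse conditions were 25-28° C, 50-60% RH; 3-4 randomized replicates.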

[7] = tested on: Glycine max; assay: whole plant or invertebrate; settings: Glycine max, post-emergence, 504 h, read-out: Control/Injury
Procedure, shortened: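 Greenhouse soybean (25–28 °C, 16 h light) sprayed post-emergence at 2–8 leaf stage with 140 or 280 g ae/ha in acetone/DMSO-based spray solution with crop oil concentrate, 187 L/ha by track sprayer; 3–4 replicates, randomized blocks. Plant size reduction versus untreated control measured 21 days after treatment.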

[8] = percent reduction vs untreated control, 21 days after treatment
[9] = percent reduction vs untreated control
[10] = R-AMAPA, percent reduction vs untreated control, 21 days after treatment
[11] = percent reduction vs untreated, 21 days after treatment

Compound	Volatility [2] [ng/min]	pest or weed control at 140 g/ha [5] [%]	pest or weed control at 280 g/ha [5] [%]	pest or weed control at 140 g/ha [6] [%]	pest or weed control at 280 g/ha [6] [%]	pest or weed control at 140 g/ha [1, 11] [%]	pest or weed control at 280 g/ha [1, 11] [%]	pest or weed control at 140 g/ha ([3]; percent reduction vs untreated) [%]	pest or weed control at 280 g/ha ([3]; percent reduction vs untreated) [%]	pest or weed control at 140 g/ha ([4]; AMAPA) [%]	pest or weed control at 280 g/ha ([4]; AMAPA) [%]	pest or weed control at 140 g/ha [1] [%]	other results
COc1c(Cl)ccc(Cl)c1C(=O)O/N=C(\SC)c1ccccc1 [Compound A-85]	0.28	67	78	57	73								pest or weed control at 140 g/ha [1, 8]: 37%; pest or weed control at 280 g/ha [1, 8]: 68%; pest or weed control at 140 g/ha [3, 9]: 95%; pest or weed control at 280 g/ha [3, 9]: 97%; pest or weed control at 140 g/ha [4, 10]: 68%; pest or weed control at 280 g/ha [4, 10]: 72%; plant injury at 140 g/ha [7]: 5%; plant injury at 280 g/ha [7]: 7%
COc1c(Cl)ccc(Cl)c1C(=O)Oc1cc2ccccc2n1C [Compound A-117]	0.04	90	97	85	85	98	95	80	98	83	89		
COc1c(Cl)ccc(Cl)c1C(=O)N(C)OC [Compound A-129]	13.4	10	15	20	23			0	5	8	20	38	pest or weed control at 280 g/ha [1]: 0%
COc1c(Cl)ccc(Cl)c1C(=O)NOCc1ccccc1 [Compound A-98]	0.08	20	15	18	13			8	0	23	20	2	pest or weed control at 280 g/ha [1]: 3%
COc1c(Cl)ccc(Cl)c1C(=O)O/N=C/c1ccco1 [Compound A-88]	0.35	70	82	72	80								pest or weed control at 140 g/ha [1, 8]: 75%; pest or weed control at 280 g/ha [1, 8]: 94%; pest or weed control at 140 g/ha [3, 9]: 87%; pest or weed control at 280 g/ha [3, 9]: 94%; pest or weed control at 140 g/ha [4, 10]: 67%; pest or weed control at 280 g/ha [4, 10]: 68%; plant injury at 140 g/ha [7]: 10%; plant injury at 280 g/ha [7]: 3%
COc1c(Cl)ccc(Cl)c1C(=O)O/N=C(/C)N [Compound A-136]	0.086	87	96	68	74	94	99	76	94	85	90		
COc1c(Cl)ccc(Cl)c1C(=O)O/N=C(\N)c1ccc2ccccc2c1 [Compound A-138]	0.008	79	76	65	64	75	70	91	91	73	59		
COc1c(Cl)ccc(Cl)c1C(=O)Nc1ccnn1C [Compound A-134]	0.01	33	30	15	8		10	0	0	15	15	5	
CCCC[C@H](CC)COC(=O)c1c(Cl)ccc(Cl)c1OC [Compound A-137]	3.42	33	36	1	8	0	0	6	3	15	15		
